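All cell lines were grown in 96-well plates and treated with compound for 48 hours. GI50 marks 50% less growth.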 Active and inactive are the calls of the source. No stated cut-off is given here; in the data, active = GI50 up to about 1.1 µM and inactive = higher.
Key:
Experiment in all cases: inhibition of tumour cell growth, NCI panel, 48 h
OVCAR-4 = test system: OVCAR-4
NCI-H522 = test system: NCI-H522
EKVX = test system: EKVX
SW-620 = test system: SW-620
HL-60 = test system: HL-60
HT-29 = test system: HT-29
A549 = test system: A549
UACC-257 = test system: UACC-257
UACC-62 = test system: UACC-62
K562 = test system: K562
SF-295 = test system: SF-295
SNB-75 = test system: SNB-75
A498 = test system: A498
SK-MEL-2 = test system: SK-MEL-2
SNB-19 = test system: SNB-19
NCI-H460 = test system: NCI-H460

Measured: GI50

COc1cc(-c2n[nH]cc2CCCC(=O)Nc2ccccc2[N+](=O)[O-])ccc1O
inactive: OVCAR-4 > 100 µM | NCI-H522 94 µM | EKVX 64.9 µM | SW-620 59.3 µM | HL-60 35.9 µM | HT-29 > 100 µM | A549 73.8 µM | UACC-257 > 100 µM | UACC-62 67.9 µM | K562 29.6 µM | SF-295 > 100 µM | SNB-75 20.8 µM | A498 > 100 µM

c1ccc2c(c1)Cc1c(Cc3csc4ccccc34)ccc3cccc-2c13
inactive: SK-MEL-2 > 100 µM | OVCAR-4 54 µM | NCI-H522 41.3 µM | EKVX > 100 µM | SW-620 > 100 µM | SNB-19 > 100 µM | HL-60 > 100 µM | HT-29 > 100 µM | A549 > 100 µM | UACC-257 > 100 µM | NCI-H460 > 100 µM | UACC-62 > 100 µM | K562 45.9 µM | SF-295 > 100 µM | SNB-75 19.7 µM

CN(C)CCn1c2c3ccccc3ccc2c2oc(=O)c3ccccc3c21
inactive: SK-MEL-2 17.9 µM | OVCAR-4 6.44 µM | NCI-H522 9.46 µM | EKVX 12.6 µM | SW-620 4 µM | SNB-19 10.3 µM | HL-60 > 100 µM | HT-29 4.86 µM | A549 3.88 µM | UACC-257 4.83 µM | NCI-H460 2.79 µM | UACC-62 7.35 µM | K562 4.48 µM | SF-295 9.04 µM | SNB-75 2.3 µM

Cn1c(=O)oc2cc(C3CCC(=O)N3Cc3csc(-c4ccccc4)n3)ccc21 (stereo not given)
inactive: SK-MEL-2 > 100 µM | OVCAR-4 > 100 µM | NCI-H522 > 100 µM | EKVX > 100 µM | SW-620 > 100 µM | SNB-19 > 100 µM | HL-60 79.8 µM | HT-29 79.1 µM | A549 > 100 µM | UACC-257 > 100 µM | NCI-H460 > 100 µM | UACC-62 > 100 µM | K562 64.6 µM | SF-295 > 100 µM | SNB-75 25.3 µM

CCc1cccc(C)c1NC(=O)CCc1n[nH]c(=S)o1
inactive: OVCAR-4 > 100 µM | NCI-H522 > 100 µM | EKVX > 100 µM | SW-620 13.3 µM | SNB-19 > 100 µM | HL-60 > 100 µM | HT-29 95.5 µM | UACC-257 > 100 µM | NCI-H460 > 100 µM | UACC-62 > 100 µM | K562 66.8 µM | SF-295 > 100 µM | SNB-75 > 100 µM | A498 > 100 µM

COC(=O)C(=O)C(CC(=O)Nc1c(C)cccc1C)C(=O)OC (stereo not given)
inactive: SK-MEL-2 > 100 µM | OVCAR-4 > 100 µM | NCI-H522 > 100 µM | EKVX > 100 µM | SW-620 > 100 µM | SNB-19 > 100 µM | HL-60 > 100 µM | HT-29 > 100 µM | A549 > 100 µM | UACC-257 > 100 µM | NCI-H460 > 100 µM | UACC-62 > 100 µM | K562 > 100 µM | SF-295 > 100 µM

O=[N+]([O-])C(=C1c2ccccc2-c2ccccc21)[N+](=O)[O-]
inactive: SK-MEL-2 > 100 µM | OVCAR-4 > 100 µM | NCI-H522 44.1 µM | EKVX > 100 µM | SW-620 64.7 µM | SNB-19 97.5 µM | HL-60 29.2 µM | HT-29 50.6 µM | A549 38.5 µM | UACC-257 52.8 µM | NCI-H460 48 µM | UACC-62 49.3 µM | K562 43.8 µM | SF-295 > 10 µM | A498 57.3 µM

CCCc1n[nH]c(CCC(=O)N(Cc2ccccc2)Cc2ccccc2)c1CC
inactive: SK-MEL-2 > 100 µM | OVCAR-4 > 100 µM | NCI-H522 > 100 µM | EKVX > 100 µM | SW-620 > 100 µM | SNB-19 > 100 µM | HT-29 > 100 µM | A549 > 100 µM | UACC-257 > 100 µM | NCI-H460 > 100 µM | UACC-62 > 100 µM | K562 > 100 µM | SF-295 > 100 µM | SNB-75 > 100 µM | A498 > 100 µM

CCOC(=O)C12CCCC1(O)N(NC(=O)OC(C)(C)C)C(C)=C2C(=O)OC (stereo not given)
inactive: SK-MEL-2 > 100 µM | OVCAR-4 > 100 µM | NCI-H522 97.3 µM | EKVX > 100 µM | SW-620 > 100 µM | SNB-19 > 100 µM | HL-60 > 100 µM | HT-29 > 100 µM | A549 > 100 µM | UACC-257 > 100 µM | NCI-H460 > 100 µM | UACC-62 > 100 µM | K562 > 100 µM | SF-295 > 100 µM | A498 > 100 µM

NC(N)NCCCc1cn2c(n1)C1CCCN1C(=O)C2Cc1ccccc1 (stereo not given)
inactive: SK-MEL-2 > 100 µM | OVCAR-4 > 100 µM | NCI-H522 > 100 µM | EKVX > 100 µM | SW-620 > 100 µM | SNB-19 > 100 µM | HT-29 > 100 µM | A549 > 100 µM | UACC-257 > 100 µM | NCI-H460 > 100 µM | UACC-62 > 100 µM | K562 > 100 µM | SF-295 > 100 µM | SNB-75 61 µM | A498 > 100 µM

CC(=O)O[C@H]1CC[C@@]2(C)C(=CC[C@H]3C(CC#N)[C@@](C)(C#N)CCC32)C1 (stereo not given in full)
inactive: SK-MEL-2 > 100 µM | OVCAR-4 > 100 µM | EKVX > 100 µM | SW-620 > 100 µM | SNB-19 > 100 µM | HL-60 > 100 µM | HT-29 > 100 µM | A549 > 100 µM | UACC-257 > 100 µM | NCI-H460 > 100 µM | UACC-62 > 100 µM | K562 > 100 µM | SF-295 > 100 µM | SNB-75 69.8 µM | A498 38.5 µM

O=CN1CCN(C=S)CC1
inactive: OVCAR-4 > 100 µM | NCI-H522 > 100 µM | EKVX > 100 µM | SW-620 > 100 µM | SNB-19 > 100 µM | HL-60 > 100 µM | HT-29 > 100 µM | A549 > 100 µM | UACC-257 > 100 µM | NCI-H460 > 100 µM | UACC-62 > 100 µM | K562 > 100 µM | SF-295 > 100 µM | SNB-75 > 100 µM | A498 > 100 µM

COc1ccc(NC(=O)CC2S/C(=N\c3ccccc3C)NC2=O)c([N+](=O)[O-])c1 (stereo not given)
inactive: SK-MEL-2 > 100 µM | OVCAR-4 > 100 µM | NCI-H522 25.4 µM | SW-620 > 100 µM | SNB-19 > 100 µM | HL-60 > 100 µM | HT-29 > 100 µM | A549 > 100 µM | UACC-257 > 100 µM | NCI-H460 > 100 µM | UACC-62 > 100 µM | K562 > 100 µM | SF-295 > 100 µM | SNB-75 > 100 µM
